According to patent US20080051332A1, “METHOD OF MODULATING HEMATOPOIETIC STEM CELLS AND TREATING HEMATOLOGIC DISEASES USING INTRANASAL PARATHYROID HORMONE” (Nastech Pharmaceutical Company Inc., priority 2005, published 2008):
“Also recorded” adds a separate entry of the source. Read-outs that look alike come from different tables or passages of the source. Ends that are not written are not given here.

Tests used:
[1] = tested on: hematopoietic stem cells; settings: mice, Calvi et al. 2003; cited from earlier work
[2] = tested on: Human chondrocytes; assay: Alginate-based cartilage growth model, type II collagen production; type: cell-based
Description: Next, the alginate-based cell system (cartilage growth model) was used to determine whether PTH dosing could stimulate chondrocytes to produce cartilage. […] Type II collagen is a major component of the extracellular matrix of nasal cartilage and therefore was used as a molecular marker for cartilage growth in this assay.
The cell-containing alginate beads were incubated in the presence of various test solutions for 12 days at 37° C., 5% CO2. After the incubation, the alginate beads were processed using an extraction method in order to quantify the production of type II collagen.
The effect of PTH on Type II collagen production was studied. The positive control in this study was re-differentiation media and the negative control was growth media. PTH was tested in a range of 20 μg to 200 μg as FORSTEO or a formulation containing the formulation enhancers (sample 1, above).
In addition, type II collagen production was assessed in the presence of a formulation containing 5 μg of insulin-like growth factor I (IGF-I). IGF-I is known to be a potent promoter of cartilage type-II collagen expression in chondrocytes and thus is an ideal positive control for the assay.

[3] = tested on: normal, human-derived tracheal/bronchial epithelial cells (EpiAirway™ Tissue Model); type: in vitro ADME
Description: (§1) The effect of various “Generally Regarded As Safe” (GRAS) permeation enhancers was measured in a MatTek cell model. Three GRAS permeation enhancers (EDTA, ethanol, Tween 80) were evaluated individually or in combination with one another. Sorbitol was used as a tonicifier to adjust the osmolarity of formulations to 220 mOsm/kg whenever applicable. The formulation pH was adjusted to 4. The permeation enhancer combination of 45 mg/ml M-β-CD, 1 mg/ml DDPC, and 1 mg/ml EDTA at pH 4.5 served as the positive control. The formulation contains sorbitol only was used as the negative control. Each formulation is evaluated in the presence and absence of preservative. For all formulations, sodium benzoate is used as the preservative.
(§2) The cell line MatTek Corp. (Ashland, Mass.) are normal, human-derived tracheal/bronchial epithelial cells (EpiAirway™ Tissue Model). Cells are cultured for 24-48 hours before use to produce a tissue insert.
Each tissue insert is placed in an individual well containing 1 ml media. On the apical surface of the inserts, 100 μl of test formulation is applied, and the sample is shaken for 1 h at 37° C. […] Transepithelial electrical resistance (TER) is measured before and after the 1-h incubation. Following the incubation, the cell inserts are analyzed for cell viability via the mitochondrial dehydrogenase (MDH) assay. […]

[4] = 100 μg/day by injection, preliminary results; cited from earlier work
[5] = tested on: human chondrocyte cell monolayer; assay: Human chondrocyte monolayer proliferation (MTT); type: cell-based; settings: MTT at t=0 and after 4 days at 37° C./5% CO2
Source text: A human chondrocyte cell monolayer model was employed to examine cell proliferation in the presence of PTH in a simple formulation (FORSTEO) or a formulation containing PTH and the formulation enhancers (sample 1, above). These were compared to a positive control (media containing antibiotics, insulin, TGF-beta and IGF-1) and negative control (media devoid of any cell growth components). It was desired to understand if the presence of PTH could stimulate chondrocyte growth. To this end, the above mentioned formulations and controls were applied to the apical side of the chondrocyte monolayers, and the MTT assay (Example 3) was conducted at t=0 and then after 4 days incubation at 37° C./5% CO2.

[6] = anesthetized rats, cited from earlier work
[7] = after feeding to rats; cited from earlier work
[8] = tested on: ciliary motility; settings: pyo compound without obvious ultrastructural lesions; phenazine derivative with some membrane disruption; cited from earlier work
[9] = tested on: normal, human-derived tracheal/bronchial epithelial cells (EpiAirway™ Tissue Model); assay: Cell viability, MTT assay, EpiAirway tissue inserts; type: cell-based; settings: after 1 h incubation with formulation
Description: as §1, §2
(§3) Each tissue insert is placed in an individual well containing 1 ml media. […] Transepithelial electrical resistance (TER) is measured before and after the 1-h incubation. Following the incubation, the cell inserts are analyzed for cell viability via the mitochondrial dehydrogenase (MDH) assay.
Cell viability is assessed using the MTT assay (MTT-100, MatTek kit). […] The optical density of the samples was measured at 550 nm on a plate reader.

[10] = tested on: normal, human-derived tracheal/bronchial epithelial cells (EpiAirway™ Tissue Model); assay: Transepithelial electrical resistance (TER) in MatTek EpiAirway tissue model; type: cell-based; settings: 100 μl formulation on apical surface, 1 h at 37° C., TER before and after
Description: The effect of various “Generally Regarded As Safe” (GRAS) permeation enhancers was measured in a MatTek cell model. Three GRAS permeation enhancers (EDTA, ethanol, Tween 80) were evaluated individually or in combination with one another. Sorbitol was used as a tonicifier to adjust the osmolarity of formulations to 220 mOsm/kg whenever applicable. The formulation pH was adjusted to 4. The permeation enhancer combination of 45 mg/ml M-β-CD, 1 mg/ml DDPC, and 1 mg/ml EDTA at pH 4.5 served as the positive control. The formulation contains sorbitol only was used as the negative control. Each formulation is evaluated in the presence and absence of preservative. […]
as §3
TER measurements are accomplished using the Endohm-12 Tissue Resistance Measurement Chamber connected to the EVOM Epithelial Volt-ohmmeter (World Precision Instruments, Sarasota, Fla.) with the electrode leads. […] The background resistance is measured with 1.5 ml Media in the Endohm tissue chamber and 300 μl Media in the blank insert. […] Resistance is expressed as (resistance measured−blank)×0.6 cm^2. […]

[11] = tested on: normal, human-derived tracheal/bronchial epithelial cells (EpiAirway™ Tissue Model); assay: Cytotoxicity, LDH assay, EpiAirway tissue inserts; type: cell-based; settings: after 1 h incubation with formulation
Description: The effect of various “Generally Regarded As Safe” (GRAS) permeation enhancers was measured in a MatTek cell model. Three GRAS permeation enhancers (EDTA, ethanol, Tween 80) were evaluated individually or in combination with one another. Sorbitol was used as a tonicifier to adjust the osmolarity of formulations to 220 mOsm/kg whenever applicable. The formulation pH was adjusted to 4. The permeation enhancer combination of 45 mg/ml M-β-CD, 1 mg/ml DDPC, and 1 mg/ml EDTA at pH 4.5 served as the positive control. The formulation contains sorbitol only was used as the negative control. Each formulation is evaluated in the presence and absence of preservative. For all formulations, sodium benzoate is used as the preservative. […]
as §3
The amount of cell death is assayed by measuring the loss of lactate dehydrogenase (LDH) from the cells using a CytoTox 96 Cytoxicity Assay Kit (Promega Corp., Madison, Wis.). LDH analysis of the apical media is evaluated. […] Following incubation, 50 μl of stop solution is added to each well and the plates read on an optical density plate reader at 490 nm.

Compound: CC[C@H](C)[C@H](NC(=O)[C@H](CCC(=O)O)NC(=O)[C@H](CO)NC(=O)[C@@H](NC(=O)[C@@H](N)CO)C(C)C)C(=O)N[C@@H](CCC(N)=O)C(=O)N[C@@H](CC(C)C)C(=O)N[C@@H](CCSC)C(=O)N[C@@H](Cc1cnc[nH]1)C(=O)N[C@@H](CC(N)=O)C(=O)N[C@@H](CC(C)C)C(=O)NCC(=O)N[C@@H](CCCCN)C(=O)N[C@@H](Cc1cnc[nH]1)C(=O)N[C@@H](CC(C)C)C(=O)N[C@@H](CC(N)=O)C(=O)N[C@@H](CO)C(=O)N[C@@H](CCSC)C(=O)N[C@@H](CCC(=O)O)C(=O)N[C@@H](CCCN=C(N)N)C(=O)N[C@H](C(=O)N[C@@H](CCC(=O)O)C(=O)N[C@@H](Cc1c[nH]c2ccccc12)C(=O)N[C@@H](CC(C)C)C(=O)N[C@@H](CCCN=C(N)N)C(=O)N[C@@H](CCCCN)C(=O)N[C@@H](CCCCN)C(=O)N[C@@H](CC(C)C)C(=O)N[C@@H](CCC(N)=O)C(=O)N[C@@H](CC(=O)O)C(=O)N[C@H](C(=O)N[C@@H](Cc1cnc[nH]1)C(=O)N[C@@H](CC(N)=O)C(=O)N[C@@H](Cc1ccccc1)C(=O)O)C(C)C)C(C)C [Teriparatide, teriparatide]
- number of functional HSCs and survival after bone marrow transplantation [1]: increases the number of functional HSCs and survival after bone marrow transplantation
- type II collagen production ([2]; 20 μg of PTH, citrate buffer or with permeation enhancers, 12 days): did not induce a substantial production of type II collagen
- type II collagen production ([2]; high concentration of PTH (200 μg) in a simple formulation, 12 days, listed as PTH): a significant increase in type II collagen was observed; also recorded: modest amounts of type II collagen production
- type II collagen production ([2]; high concentration of PTH in the presence of permeation enhancers, 12 days, listed as PTH): essentially no production of type II collagen; also recorded: did not induce any cartilage growth
- impact of preservative on Teriparatide permeation [3]: no significant impact
- success rates in bone marrow transplant patients [4]: improves success rates
- chondrocyte proliferation [5]: does not promote growth of chondrocytes

Compound: human growth hormone
- nasal bioavailability ([6]; with N-acetyl-L-cysteine (ACS)): 12.2%
- nasal bioavailability ([6]; without N-acetyl-L-cysteine): 7.5%

Compound: Phaseolus vulgaris hemagglutinin
- oral bioavailability [7]: more than 10%

Compound: calcitonin (CGNLSTCMLGTYTQDFNKFHTFPQTAIGVGAP; ends and bridges not checked; cysteine pairing not given here; UniProt P01258 85-116, looked up)
- type II collagen production ([2]; 20 μg or 200 μg calcitonin): no effect

Compound: insulin-like growth factor I [IGF-I]
- type II collagen production ([2]; 5 μg IGF-I, positive control): greater than 1.2 pg per culture

Compound: 2-alkyl-4-hydroxyquinolines [pyo compound]
- concentration producing ciliostasis / inhibiting ciliary motility [8]: 50 µg/mL

Compound: Triton X
- cell viability (MTT assay) [9]: significant reduction of cell viability
- TER reduction [10]: significant TER reduction
- cytotoxicity (LDH assay) [11]: significant cytotoxicity
